Series [1] addresses T1, recombinantly produced, refolded SMT protein (Arabidopsis thaliana, UniProt Q8RUW5, A20T/S19M).
T1 construct: consisting primarily of recombinant mature Arabidopsis SMT and some minor protein contaminants; initiator Met (start codon added in place of the signal peptide) (N); made in house
Type of series: biochemical. The note with it: for acceptance as acyl acceptor with sinapoylglucose or PHBA 1-O-acylglucoside: 200 ng SMT, 500 μM glucose ester, 400 mM alcohol, pH 6.2, 30° C. for 16 h. The procedure: Sinapoyl glucose was purified from the sng1 mutant of Arabidopsis as described by Lorenzen et al. (Plant Physiology 112:1625-1630 (1996)). The SMT assay contained 12.5 μL of 0.5 mM sinapoyl glucose in 100 mM potassium phosphate buffer (pH 7.5), 5 μL of 100 mM potassium phosphate buffer (pH 6.0), 5 μL of 1 M malic acid in potassium phosphate buffer (pH 6.0) and 5 μL of E. coli extract corresponding to 100 μg of protein. Assays were incubated for 14 h at 30° C., stopped by addition of 30 μL of methanol and stored at −70° C. before analysis by HPLC. Enzyme assays were analyzed by HPLC on a Nova-Pak® Pak® C18 column (60 Å pore size, […] particle size) using a gradient from 6% acetonitrile, 1.5% phosphoric acid to 48% acetonitrile, followed by 1.5% phosphoric acid and UV detection at 335 nm.
Approximately 250 ng of recombinantly produced, refolded SMT protein was incubated with 200 mM malate, 0.1 mM PHBA 1-O-acyl glucoside in a 25 μL reaction in 100 mM potassium phosphate buffer (pH 6.2) for 12 h at 30° C. Reaction products were separated by HPLC as described in the General Methods. […] The compound was analyzed by LC-MS as described in the General Methods.
The activity of the SMT enzyme was determined using sinapoyl glucose and L-lactate as follows. 1 μg of partially purified recombinant SMT protein was incubated with 500 μM sinapoyl glucose in 100 mM potassium phosphate buffer (pH 6.2) in the absence or presence of 200 mM L-lactate. Enzyme reactions were incubated at 30° C. for 12 h. Reaction products were analyzed by HPLC as described in the General Methods.
Activity of the SMT enzyme was determined using sinapoylglucose or PHBA 1-O-acylglucoside and methanol, ethanol and isopropanol. Briefly, 200 ng of partially purified recombinantly produced SMT protein was incubated with 500 μM of the glucose ester of sinapic acid or PHBA in 100 mM potassium phosphate buffer (pH 6.2) in the absence or presence of 400 mM of the respective alcohols in 100 μL enzyme reactions. Enzyme reactions were incubated at 30° C. for 16 h. All reaction products were analyzed by HPLC as described in Example 1.

The target of series [2] is SMT (sinapoylglucose:malate sinapoyltransferase) (Arabidopsis thaliana, UniProt Q8RUW5, A20T/S19M). As to the method: Sinapoyl glucose was purified from the sng1 mutant of Arabidopsis as described by Lorenzen et al. (Plant Physiology 112:1625-1630 (1996)). […] Assays were incubated for 14 h at 30° C., stopped by addition of 30 μL of methanol and stored at −70° C. before analysis by HPLC. Enzyme assays were analyzed by HPLC on a Nova-Pak® Pak® C18 column (60 Å pore size, […] particle size) using a gradient from 6% acetonitrile, 1.5% phosphoric acid to 48% acetonitrile, followed by 1.5% phosphoric acid and UV detection at 335 nm.

In the next series the test system is O=C(O)CC(O)C(=O)O. Briefly: purified protein, by the assay type. The note with it: other: 30° C., 500 μM sinapoyl glucose, 100 mM potassium phosphate buffer (pH 6.8), 50 ng partially purified SMT, Hofstee plot.
The target in series [3] is T2, sinapoyl glucose and L-malate (SMT reaction) (Arabidopsis thaliana, UniProt Q8RUW5, A20T/S19M).
T2 construct: consisting primarily of recombinant mature Arabidopsis SMT and some minor protein contaminants; initiator Met (start codon added in place of the signal peptide) (N); made in house
Briefly: Turnover number of purified recombinant SMT folded from inclusion bodies. The note with it: 30° C., 100 mM potassium phosphate buffer (pH 6.2), 500 μM sinapoyl glucose, 200 mM L-malate. Type of series: biochemical. As to the method: As judged by SDS-PAGE and Coomassie-blue staining, the folded recombinant protein was at least 80% pure and the final yield of active SMT from the 100 mL folding reaction was ˜6 μg, corresponding to ˜0.52% of the original inclusion body material. The turnover number for purified recombinant SMT folded from inclusion bodies was ˜18/sec at 30° C., which compares favorably to the 11.5/sec value that was previously reported for the authentic protein purified from radish (Graewe et al., Planta 187:236-241 (1992)). For this determination the 25 μL enzyme reaction contained 100 mM potassium phosphate buffer (pH 6.2), 500 μM sinapoyl glucose and 200 mM L-malate.

Where two headings read alike, the source gives them in different places.

`C[C@H](O)C(=O)O` [L-lactate]: the “acceptance as acyl acceptor with sinapoyl glucose” value in series [1] (1 μg SMT, 500 μM sinapoyl glucose, 200 mM L-lactate, pH 6.2, 30° C. for 12 h, product m/z agrees with sinapoyl lactate) is recorded as “a new compound that absorbs at 335 nm is produced”.

The term Km denotes the concentration of substrate that gives half-maximal velocity. For `O=C(O[C@@H]1O[C@H](CO)[C@@H](O)[C@H](O)[C@H]1O)c1ccc(O)cc1` [PHBA 1-O-acyl glucoside], the “Vmax of SMT for PHBA 1-O-acyl glucoside” value in series [2] (30° C., 200 mM malate, 500 ng partially purified SMT, y-intercept of regression curve) is 0.2482 μmol min^−1 mg^−1 protein. In series [2] (read-out: Km of SMT for PHBA 1-O-acyl glucoside, 30° C., 200 mM malate, 100 mM potassium phosphate buffer (pH 6.8), 500 ng partially purified SMT, PHBA malate synthesis, Hofstee plot), the Km is about 354 µM. The “conversion by SMT in the presence of malate” value in series [1] (250 ng SMT, 200 mM malate, 0.1 mM PHBA 1-O-acyl glucoside, pH 6.2, 12 h at 30° C., product m/z agrees with PHBA malate) is “converted to a new compound”.

In the case of `CCO` [ethanol], the “acceptance as acyl acceptor with sinapoylglucose or PHBA 1-O-acylglucoside” value in series [1] is “production of methyl, ethyl and isopropyl esters of sinapic acid and PHBA”.

Consider `CC(C)O` [isopropanol], for which, in series [1], the “acceptance as acyl acceptor with sinapoylglucose or PHBA 1-O-acylglucoside” value is “production of methyl, ethyl and isopropyl esters of sinapic acid and PHBA”.

As for `CO` [methanol], the “acceptance as acyl acceptor with sinapoylglucose or PHBA 1-O-acylglucoside” value in series [1] was “production of methyl, ethyl and isopropyl esters of sinapic acid and PHBA”.

In the case of `COc1cc(/C=C/C(=O)O[C@@H]2O[C@H](CO)[C@@H](O)[C@H](O)[C@H]2O)cc(OC)c1O` [sinapoyl glucose], the “Vmax of SMT for sinapoyl glucose” value in series [2] (30° C., 200 mM malate, 50 ng partially purified SMT, y-intercept of regression curve) turned out to be 21.315 μmol min^−1 mg^−1 protein. In series [2] (read-out: Km of SMT for sinapoyl glucose, pH 6.8), the Michaelis-Menten constant (Km) is about 541 µM.

Consider “SMT (sinapoylglucose:malate sinapoyltransferase) (Arabidopsis thaliana; A20T/S19M)”, for which the Michaelis constant (Km) in the series with O=C(O)CC(O)C(=O)O stood at 42000 µM.

B1: purified recombinant SMT: recombinant mature Arabidopsis sinapoylglucose:malate sinapoyltransferase (SEQ ID NO:7) folded from E. coli inclusion bodies (protein)
chain: MTSIVKFLPGFEGPLPFELETGYIGIGEDENVQFFYYFIKSENNPKEDPLLIWLNGGPGCSCLGGIIFENGPVGLKFEVFNGSAPSLFSTTYSWTKMANIIFLDQPVGSGFSYSKTPIDKTGDISEVKRTHEFLQKWLSRHPQYFSNPLYVVGDSYSGMIVPALVQEISQGNYICCEPPINLQGYMLGNPVTYMDFEQNFRIPYAYGMGLISDEIYEPMKRICNGNYYNVDPSNTQCLKLTEEYHKCTAKINIHHILTPDCDVTNVTSPDCYYYPYHLIECWANDESVREALHIEKGSKGKWARCNRTIPYNHDIVSSIPYHMNNSISGYRSLIYSGDHDIAVPFLATQAWIRSLNYSPIHNWRPWMINNQIAGYTRAYSNKMTFATIKGGGHTAEYRPNETFIMFQRWISGQPL
Regarding B1, in series [3], the turnover number is about 18 s⁻¹.

These data come from patent publication US6642036B2, “Sinapoylglucose:malate sinapoyltransferase form malate conjugates from benozic acid glucosides” (E. I. Du Pont de Nemours and Company, priority 2000, dated 2003).
